Data reported in patent US11542304B2, “Multimeric bicyclic peptide ligands” (BicycleTx Limited, priority 2018, dated 2023).

Biological target: CD137 (Homo sapiens, UniProt Q07011)
Assay: CD137 Promega reporter cell activity assay (NF-κB luciferase in Jurkat cells)
Conditions: for Average Fold EC50 Improvement relative to CD137L: Average EC50 for CD137L = 14.2 nM; for Average Relative Fold Induction relative to CD137L: Average fold induction for CD137L = 4.0
Experimental: CD137 binding multimers were evaluated for CD137 using a Reporter cell activity assay that uses NF-κB luciferase luminescence as a read-out of CD137 activation in Jurkat cells. […] Samples were diluted at concentration expected to give the maximum fold induction and then titrated down in 1/3 dilution series or 1/10 dilution series in a sterile 96 well-plate. […] 50 μl cells were added per well to white cell culture plates.
Cells were co-incubated together with agonists for 6 h at 37° C., 5% CO2. After 6 h Bio-Glo™ was thawed and the assay developed at room-temperature. 75 ul Bio-Glo™ was added per well and incubated for 5-10 min. Luciferase signal was read on a Pherastar plate-reader using MARS program. Data was analysed by transforming the data to x=log (X), then plotting log (agonist) vs. response variable slope (4 parameters) to calculate EC50 values.

Chain of CD137 (Q07011 24-255): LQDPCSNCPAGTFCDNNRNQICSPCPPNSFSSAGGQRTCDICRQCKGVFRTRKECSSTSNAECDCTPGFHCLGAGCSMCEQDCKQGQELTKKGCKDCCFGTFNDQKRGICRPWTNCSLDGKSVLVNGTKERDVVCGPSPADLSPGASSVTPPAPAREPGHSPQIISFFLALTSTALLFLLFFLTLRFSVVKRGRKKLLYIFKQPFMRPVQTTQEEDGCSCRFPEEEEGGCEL

For `CC[C@H](C)[C@@H]1NC(=O)[C@@H](NC(=O)[C@H](C)NC(C)=O)CSCCC(=O)N2CN3CN(C2)C(=O)CCSC[C@H](NC(=O)[C@H](Cc2ccc(O)cc2)NC(=O)[C@H](CCC(N)=O)NC(=O)CNC(=O)[C@H](CCC(=O)O)NC(=O)[C@H](CCC(=O)O)NC1=O)C(=O)N[C@@H](Cc1ccccc1)C(=O)N[C@@H](C)C(=O)N[C@@H](CC(=O)O)C(=O)N1CCC[C@H]1C(=O)N[C@@H](Cc1ccc(O)cc1)C(=O)N[C@@H](CCCCNC(=O)OCC1C2CCc4nnn(CCOCCOCCOCCOCCOCCOCCOCCOCCOCCOCCNC(=O)CCOCCN(CCOCCC(=O)NCCOCCOCCOCCOCCOCCOCCOCCOCCOCCOCCn5nnc6c5CCC5C(CC6)C5COC(=O)NCCCC[C@@H]5NC(=O)[C@H](Cc6ccc(O)cc6)NC(=O)[C@@H]6CCCN6C(=O)[C@H](CC(=O)O)NC(=O)[C@H](C)NC(=O)[C@H](Cc6ccccc6)NC(=O)[C@@H]6CSCCC(=O)N7CN(CN(C7)C(=O)CCSC[C@@H](C(=O)N[C@@H](C)C(N)=O)NC5=O)C(=O)CCSC[C@H](NC(=O)[C@H](C)NC(C)=O)C(=O)N[C@@H]([C@@H](C)CC)C(=O)N[C@@H](CCC(=O)O)C(=O)N[C@@H](CCC(=O)O)C(=O)NCC(=O)N[C@@H](CCC(N)=O)C(=O)N[C@@H](Cc5ccc(O)cc5)C(=O)N6)CCOCCC(=O)NCCOCCOCCOCCOCCOCCOCCOCCOCCOCCOCCn5nnc6c5CCC5C(CC6)C5COC(=O)NCCCC[C@@H]5NC(=O)[C@H](Cc6ccc(O)cc6)NC(=O)[C@@H]6CCCN6C(=O)[C@H](CC(=O)O)NC(=O)[C@H](C)NC(=O)[C@H](Cc6ccccc6)NC(=O)[C@@H]6CSCCC(=O)N7CN(CN(C7)C(=O)CCSC[C@@H](C(=O)N[C@@H](C)C(N)=O)NC5=O)C(=O)CCSC[C@H](NC(=O)[C@H](C)NC(C)=O)C(=O)N[C@@H]([C@@H](C)CC)C(=O)N[C@@H](CCC(=O)O)C(=O)N[C@@H](CCC(=O)O)C(=O)NCC(=O)N[C@@H](CCC(N)=O)C(=O)N[C@@H](Cc5ccc(O)cc5)C(=O)N6)c4CCC21)C(=O)N[C@H](C(=O)N[C@@H](C)C(N)=O)CSCCC3=O` (some centres unmarked) [BCY8106], the “Average Fold EC50 Improvement relative to CD137L” value was 1.26 and the “Average Relative Fold Induction relative to CD137L” value was 0.94.

`CC[C@H](C)[C@@H]1NC(=O)[C@@H](NC(=O)[C@H](C)NC(C)=O)CSCCC(=O)N2CN3CN(C2)C(=O)CCSC[C@H](NC(=O)[C@H](Cc2ccc(O)cc2)NC(=O)[C@H](CCC(N)=O)NC(=O)CNC(=O)[C@H](CCC(=O)O)NC(=O)[C@H](CCC(=O)O)NC1=O)C(=O)N[C@@H](Cc1ccccc1)C(=O)N[C@@H](C)C(=O)N[C@@H](CC(=O)O)C(=O)N1CCC[C@H]1C(=O)N[C@@H](Cc1ccc(O)cc1)C(=O)N[C@@H](CCCCNC(=O)OCC1C2CCc4nnn(CCOCCOCCOCCOCCOCCOCCOCCOCCOCCOCCOCCOCCOCCOCCOCCOCCOCCOCCOCCOCCOCCOCCOCCNC(=O)CCOCCN(CCOCCC(=O)NCCOCCOCCOCCOCCOCCOCCOCCOCCOCCOCCOCCOCCOCCOCCOCCOCCOCCOCCOCCOCCOCCOCCOCCn5nnc6c5CCC5C(CC6)C5COC(=O)NCCCC[C@@H]5NC(=O)[C@H](Cc6ccc(O)cc6)NC(=O)[C@@H]6CCCN6C(=O)[C@H](CC(=O)O)NC(=O)[C@H](C)NC(=O)[C@H](Cc6ccccc6)NC(=O)[C@@H]6CSCCC(=O)N7CN(CN(C7)C(=O)CCSC[C@@H](C(=O)N[C@@H](C)C(N)=O)NC5=O)C(=O)CCSC[C@H](NC(=O)[C@H](C)NC(C)=O)C(=O)N[C@@H]([C@@H](C)CC)C(=O)N[C@@H](CCC(=O)O)C(=O)N[C@@H](CCC(=O)O)C(=O)NCC(=O)N[C@@H](CCC(N)=O)C(=O)N[C@@H](Cc5ccc(O)cc5)C(=O)N6)CCOCCC(=O)NCCOCCOCCOCCOCCOCCOCCOCCOCCOCCOCCOCCOCCOCCOCCOCCOCCOCCOCCOCCOCCOCCOCCOCCn5nnc6c5CCC5C(CC6)C5COC(=O)NCCCC[C@@H]5NC(=O)[C@H](Cc6ccc(O)cc6)NC(=O)[C@@H]6CCCN6C(=O)[C@H](CC(=O)O)NC(=O)[C@H](C)NC(=O)[C@H](Cc6ccccc6)NC(=O)[C@@H]6CSCCC(=O)N7CN(CN(C7)C(=O)CCSC[C@@H](C(=O)N[C@@H](C)C(N)=O)NC5=O)C(=O)CCSC[C@H](NC(=O)[C@H](C)NC(C)=O)C(=O)N[C@@H]([C@@H](C)CC)C(=O)N[C@@H](CCC(=O)O)C(=O)N[C@@H](CCC(=O)O)C(=O)NCC(=O)N[C@@H](CCC(N)=O)C(=O)N[C@@H](Cc5ccc(O)cc5)C(=O)N6)c4CCC21)C(=O)N[C@H](C(=O)N[C@@H](C)C(N)=O)CSCCC3=O` (some centres unmarked) [BCY8107] was tested, and the “Average Fold EC50 Improvement relative to CD137L” value was 64.33 and the “Average Relative Fold Induction relative to CD137L” value was 0.64.

In the case of `CC[C@H](C)[C@@H]1NC(=O)[C@@H](NC(=O)[C@H](C)NC(C)=O)CSCCC(=O)N2CN3CN(C2)C(=O)CCSC[C@H](NC(=O)[C@H](Cc2ccc(O)cc2)NC(=O)[C@H](CCC(N)=O)NC(=O)CNC(=O)[C@H](CCC(=O)O)NC(=O)[C@H](CCC(=O)O)NC1=O)C(=O)N[C@@H](Cc1ccccc1)C(=O)N[C@@H](C)C(=O)N[C@@H](CC(=O)O)C(=O)N1CCC[C@H]1C(=O)N[C@@H](Cc1ccc(O)cc1)C(=O)N[C@@H](CCCCNC(=O)OCC1C2CCc4nnn(CCOCCOCCOCCOCCOCCOCCOCCOCCOCCOCCNC(=O)CCOCC(COCCC(=O)NCCOCCOCCOCCOCCOCCOCCOCCOCCOCCOCCn5nnc6c5CCC5C(CC6)C5COC(=O)NCCCC[C@@H]5NC(=O)[C@H](Cc6ccc(O)cc6)NC(=O)[C@@H]6CCCN6C(=O)[C@H](CC(=O)O)NC(=O)[C@H](C)NC(=O)[C@H](Cc6ccccc6)NC(=O)[C@@H]6CSCCC(=O)N7CN(CN(C7)C(=O)CCSC[C@@H](C(=O)N[C@@H](C)C(N)=O)NC5=O)C(=O)CCSC[C@H](NC(=O)[C@H](C)NC(C)=O)C(=O)N[C@@H]([C@@H](C)CC)C(=O)N[C@@H](CCC(=O)O)C(=O)N[C@@H](CCC(=O)O)C(=O)NCC(=O)N[C@@H](CCC(N)=O)C(=O)N[C@@H](Cc5ccc(O)cc5)C(=O)N6)(COCCC(=O)NCCOCCOCCOCCOCCOCCOCCOCCOCCOCCOCCn5nnc6c5CCC5C(CC6)C5COC(=O)NCCCC[C@@H]5NC(=O)[C@H](Cc6ccc(O)cc6)NC(=O)[C@@H]6CCCN6C(=O)[C@H](CC(=O)O)NC(=O)[C@H](C)NC(=O)[C@H](Cc6ccccc6)NC(=O)[C@@H]6CSCCC(=O)N7CN(CN(C7)C(=O)CCSC[C@@H](C(=O)N[C@@H](C)C(N)=O)NC5=O)C(=O)CCSC[C@H](NC(=O)[C@H](C)NC(C)=O)C(=O)N[C@@H]([C@@H](C)CC)C(=O)N[C@@H](CCC(=O)O)C(=O)N[C@@H](CCC(=O)O)C(=O)NCC(=O)N[C@@H](CCC(N)=O)C(=O)N[C@@H](Cc5ccc(O)cc5)C(=O)N6)COCCC(=O)NCCOCCOCCOCCOCCOCCOCCOCCOCCOCCOCCn5nnc6c5CCC5C(CC6)C5COC(=O)NCCCC[C@@H]5NC(=O)[C@H](Cc6ccc(O)cc6)NC(=O)[C@@H]6CCCN6C(=O)[C@H](CC(=O)O)NC(=O)[C@H](C)NC(=O)[C@H](Cc6ccccc6)NC(=O)[C@@H]6CSCCC(=O)N7CN(CN(C7)C(=O)CCSC[C@@H](C(=O)N[C@@H](C)C(N)=O)NC5=O)C(=O)CCSC[C@H](NC(=O)[C@H](C)NC(C)=O)C(=O)N[C@@H]([C@@H](C)CC)C(=O)N[C@@H](CCC(=O)O)C(=O)N[C@@H](CCC(=O)O)C(=O)NCC(=O)N[C@@H](CCC(N)=O)C(=O)N[C@@H](Cc5ccc(O)cc5)C(=O)N6)c4CCC21)C(=O)N[C@H](C(=O)N[C@@H](C)C(N)=O)CSCCC3=O` (some centres unmarked) [BCY8108], the “Average Fold EC50 Improvement relative to CD137L” value is reported as 34.03 and the “Average Relative Fold Induction relative to CD137L” value is reported as 0.79.

For `CCCC[C@@H]1NC(=O)[C@H](Cc2ccc(O)cc2)NC(=O)[C@@H]2CCCN2C(=O)[C@H](CC(=O)O)NC(=O)[C@H](C)NC(=O)[C@H](CCCCNC(=O)OCC2C3CCc4nnn(CCOCCOCCOCCOCCOCCOCCOCCOCCOCCOCCNC(=O)CCOCC(COCCC(=O)NCCOCCOCCOCCOCCOCCOCCOCCOCCOCCOCCn5nnc6c5CCC5C(CC6)C5COC(=O)NCCCC[C@@H]5NC(=O)[C@@H]6CSCCC(=O)N7CN(CN(C7)C(=O)CCSC[C@@H](C(=O)N[C@@H](C)C(N)=O)NC(=O)[C@H](CCCC)NC(=O)[C@H](Cc7ccc(O)cc7)NC(=O)[C@@H]7CCCN7C(=O)[C@H](CC(=O)O)NC(=O)[C@H](C)NC5=O)C(=O)CCSC[C@H](NC(=O)[C@H](C)NC(C)=O)C(=O)N[C@@H]([C@@H](C)CC)C(=O)N[C@@H](CCC(=O)O)C(=O)N[C@@H](CCC(=O)O)C(=O)NCC(=O)N[C@@H](CCC(N)=O)C(=O)N[C@@H](Cc5ccc(O)cc5)C(=O)N6)(COCCC(=O)NCCOCCOCCOCCOCCOCCOCCOCCOCCOCCOCCn5nnc6c5CCC5C(CC6)C5COC(=O)NCCCC[C@@H]5NC(=O)[C@@H]6CSCCC(=O)N7CN(CN(C7)C(=O)CCSC[C@@H](C(=O)N[C@@H](C)C(N)=O)NC(=O)[C@H](CCCC)NC(=O)[C@H](Cc7ccc(O)cc7)NC(=O)[C@@H]7CCCN7C(=O)[C@H](CC(=O)O)NC(=O)[C@H](C)NC5=O)C(=O)CCSC[C@H](NC(=O)[C@H](C)NC(C)=O)C(=O)N[C@@H]([C@@H](C)CC)C(=O)N[C@@H](CCC(=O)O)C(=O)N[C@@H](CCC(=O)O)C(=O)NCC(=O)N[C@@H](CCC(N)=O)C(=O)N[C@@H](Cc5ccc(O)cc5)C(=O)N6)COCCC(=O)NCCOCCOCCOCCOCCOCCOCCOCCOCCOCCOCCn5nnc6c5CCC5C(CC6)C5COC(=O)NCCCC[C@@H]5NC(=O)[C@@H]6CSCCC(=O)N7CN(CN(C7)C(=O)CCSC[C@@H](C(=O)N[C@@H](C)C(N)=O)NC(=O)[C@H](CCCC)NC(=O)[C@H](Cc7ccc(O)cc7)NC(=O)[C@@H]7CCCN7C(=O)[C@H](CC(=O)O)NC(=O)[C@H](C)NC5=O)C(=O)CCSC[C@H](NC(=O)[C@H](C)NC(C)=O)C(=O)N[C@@H]([C@@H](C)CC)C(=O)N[C@@H](CCC(=O)O)C(=O)N[C@@H](CCC(=O)O)C(=O)NCC(=O)N[C@@H](CCC(N)=O)C(=O)N[C@@H](Cc5ccc(O)cc5)C(=O)N6)c4CCC32)NC(=O)[C@@H]2CSCCC(=O)N3CN(CN(C3)C(=O)CCSC[C@@H](C(=O)N[C@@H](C)C(N)=O)NC1=O)C(=O)CCSC[C@H](NC(=O)[C@H](C)NC(C)=O)C(=O)N[C@@H]([C@@H](C)CC)C(=O)N[C@@H](CCC(=O)O)C(=O)N[C@@H](CCC(=O)O)C(=O)NCC(=O)N[C@@H](CCC(N)=O)C(=O)N[C@@H](Cc1ccc(O)cc1)C(=O)N2` (some centres unmarked) [BCY8147], the “Average Fold EC50 Improvement relative to CD137L” value was 50.58 and the “Average Relative Fold Induction relative to CD137L” value was 1.04.
